PMC6211260 (Journal of Enzyme Inhibition and Medicinal Chemistry, 2018)

Columns and labels:
Format in all cases: cell-based
NCI-60 cell line panel = experiment: NCI-60 single-dose (10 µM) antiproliferative screening, mean over panel; settings: single-dose 10 µM, 60-cancer cell line screening
Description: (§1) Screening against the cancer cell lines was carried out at the National Cancer Institute (NCI, Bethesda, Maryland, USA) applying the standard protocol of the NCI[22].
The final target compounds were submitted to the National Cancer Institute (NCI), Maryland, USA[23]. Thirty-one compounds were selected to be tested over 60 cell lines at single dose 10 µM.

CNS cancer cell lines = experiment: NCI five-dose testing, subpanel mean; settings: subpanel IV: CNS cancer
Description: as §1

Leukaemia cell lines = experiment: NCI five-dose testing, subpanel mean; settings: subpanel I: Leukaemia
Description: as §1

breast cancer cell lines = experiment: NCI five-dose testing, subpanel mean; settings: subpanel IX: breast cancer
Description: as §1

colon cancer cell lines = experiment: NCI five-dose testing, subpanel mean; settings: subpanel III: colon cancer
Description: as §1

melanoma cell lines = experiment: NCI five-dose testing, subpanel mean; settings: subpanel V: melanoma
Description: as §1

[1] = test system: non-small cell lung cancer cell lines; experiment: NCI five-dose testing, subpanel mean; settings: subpanel II: non-small cell lung cancer
Description: as §1

[2] = test system: ovarian cancer cell lines; experiment: NCI five-dose testing, subpanel mean; settings: subpanel VI: ovarian cancer
Description: as §1

[3] = test system: prostate cancer cell lines; experiment: NCI five-dose testing, subpanel mean; settings: subpanel VIII: prostate cancer
Description: as §1

renal cancer cell lines = experiment: NCI five-dose testing, subpanel mean; settings: subpanel VII: renal cancer
Description: as §1

[4] = test system: A498 renal cancer cell line; experiment: NCI five-dose testing; settings: Homo sapiens; for IC50 / IC (TGI): A498; for LC50 (lethal concentration 50%): A498, read-out: LD50 (lethal dose 50); for IC (TGI): read-out: TGI (total growth inhibition concentration)
Description: as §1

[5] = test system: HOP-92 non-small cell lung cancer cell line; experiment: NCI five-dose testing; settings: Homo sapiens; for IC50: HOP-92; for IC (TGI): HOP-92, HOP-92, read-out: TGI (total growth inhibition concentration); for LD50 (lethal dose 50): HOP-92, read-out: LD50 (lethal dose 50)
Description: as §1

[6] = test system: HT-29 colon cancer cell line; experiment: NCI five-dose testing; settings: Homo sapiens; for CC50: HT-29, read-out: LD50 (lethal dose 50); for IC50 / IC (TGI): HT-29; for IC50: read-out: IC50; for IC (TGI): read-out: TGI (total growth inhibition concentration)
Description: as §1

[7] = test system: K-562 leukaemia cell line; experiment: NCI five-dose testing; settings: for CC50: K562, read-out: LD50 (lethal dose 50); for IC50 / IC (TGI): K-562; for IC (TGI): read-out: TGI (total growth inhibition concentration)
Description: as §1

[8] = test system: MDA-MB-468 breast cancer cell line; experiment: NCI five-dose testing; settings: Homo sapiens; for IC50 / IC (TGI): MDA-MB-468; for CC50: MDA-MB-468, read-out: LD50 (lethal dose 50); for IC (TGI): read-out: TGI (total growth inhibition concentration)
Description: as §1

[9] = test system: OVCAR-4 ovarian cancer cell line; experiment: NCI five-dose testing; settings: Homo sapiens; for IC50 / IC (TGI): OVCAR-4; for LC50 (lethal concentration 50): OVCAR-4, read-out: LD50 (lethal dose 50); for IC (TGI): read-out: TGI (total growth inhibition concentration)
Description: as §1

[10] = test system: PC-3 prostate cancer cell line; experiment: NCI five-dose testing; settings: Homo sapiens; for LC50 (lethal concentration 50): PC-3, read-out: LD50 (lethal dose 50); for IC50 / IC (TGI): PC-3; for IC50: read-out: IC50; for IC (TGI): read-out: TGI (total growth inhibition concentration)
Description: as §1

[11] = test system: SK-MEL-5 melanoma cell line; experiment: NCI five-dose testing; settings: Homo sapiens; for IC50 / IC (TGI): SK-MEL-5; for LC50 (lethal concentration 50): SK-MEL-5, read-out: LD50 (lethal dose 50); for IC (TGI): read-out: TGI (total growth inhibition concentration)
Description: as §1

[12] = test system: U251 CNS cancer cell line; experiment: NCI five-dose testing; settings: Homo sapiens; for CC50: U-251, read-out: LD50 (lethal dose 50); for IC50 / IC (TGI): U-251, U251; for IC50: read-out: IC50; for IC (TGI): read-out: TGI (total growth inhibition concentration)
Description: as §1

## COc1cccc(-c2nn(-c3ccccc3)cc2-c2ccnc(NCCNS(=O)(=O)c3ccc(C(F)(F)F)cc3)c2)c1 [Compound 1g, N-(2-((4-(3-(3-Methoxyphenyl)-1-phenyl-1H-pyrazol-4-yl)pyridin-2-yl)amino)ethyl)-4-(trifluoromethyl)benzenesulfonamide]
NCI-60 cell line panel
  inhibition at 10 µM: 92.8%
CNS cancer cell lines
  IC50: 5.28 µM
Leukaemia cell lines
  IC50: 3.35 µM
Breast cancer cell lines
  IC50: 4.05 µM
Colon cancer cell lines
  IC50: 4.91 µM
Melanoma cell lines
  IC50: 4.94 µM
[1]
  IC50: 6.36 µM
[2]
  IC50: 6.1 µM
[3]
  IC50: 13 µM
Renal cancer cell lines
  IC50: 5.32 µM
[4]
  IC50: 3.4 µM
  LC50 (lethal concentration 50%): > 100 µM
  IC (TGI): 6.5 µM
[5]
  IC50: 2.12 µM
  IC (TGI): 6.8 µM
  LD50 (lethal dose 50): > 100 µM
[6]
  CC50: 37.7 µM
  IC50: 2.32 µM
  IC (TGI): 5.7 µM
[7]; Homo sapiens
  CC50: > 100 µM
[7]; Homo sapiens, K562
  IC50: 2.87 µM
  IC (TGI): 19 µM
[8]
  IC50: 3.31 µM
  CC50: > 100 µM
  IC (TGI): > 100 µM
[9]
  IC50: 2.94 µM
  LC50 (lethal concentration 50): > 100 µM
  IC (TGI): > 100 µM
[10]
  LC50 (lethal concentration 50): > 100 µM
  IC50: 2.86 µM
  IC (TGI): 26.7 µM
[11]
  IC50: 1.72 µM
  LC50 (lethal concentration 50): 5.6 µM
  IC (TGI): 3.1 µM
[12]
  CC50: 63.4 µM
  IC50: 3.54 µM
  IC (TGI): 13.9 µM

## COc1cccc(-c2nn(-c3ccccc3)cc2-c2ccnc(NCCCNS(=O)(=O)c3cccc(F)c3)c2)c1 [Compound 2h, 3-Fluoro-N-(3-((4-(3-(3-methoxyphenyl)-1-phenyl-1H-pyrazol-4-yl)pyridin-2-yl)amino)propyl)benzenesulfonamide]
NCI-60 cell line panel
  inhibition at 10 µM: 76.8%
CNS cancer cell lines
  IC50: 4.49 µM
Leukaemia cell lines
  IC50: 3.18 µM
Breast cancer cell lines
  IC50: 3.49 µM
Colon cancer cell lines
  IC50: 4.69 µM
Melanoma cell lines
  IC50: 4.14 µM
[1]
  IC50: 5.01 µM
[2]
  IC50: 3.88 µM
[3]
  IC50: 4.65 µM
Renal cancer cell lines
  IC50: 4.25 µM
[4]
  IC50: 3.52 µM
  LC50 (lethal concentration 50%): > 100 µM
  IC (TGI): > 100 µM
[5]
  IC50: 2.42 µM
  IC (TGI): > 100 µM
  LD50 (lethal dose 50): > 100 µM
[6]
  CC50: > 100 µM
  IC50: 2.87 µM
  IC (TGI): 18.8 µM
[7]; Homo sapiens
  CC50: > 100 µM
[7]; Homo sapiens, K562
  IC50: 3.31 µM
  IC (TGI): > 100 µM
[8]
  IC50: 3.49 µM
  CC50: > 100 µM
  IC (TGI): 30.4 µM
[9]
  IC50: 3.28 µM
  LC50 (lethal concentration 50): > 100 µM
  IC (TGI): > 100 µM
[10]
  LC50 (lethal concentration 50): > 100 µM
  IC50: 2.97 µM
  IC (TGI): > 100 µM
[11]
  IC50: 1.86 µM
  LC50 (lethal concentration 50): 7.6 µM
  IC (TGI): 3.7 µM
[12]
  CC50: > 100 µM
  IC50: 4.83 µM
  IC (TGI): > 100 µM

## O=S(=O)(NCCCNc1cc(-c2cn(-c3ccccc3)nc2-c2cccc(O)c2)ccn1)c1ccc(C(F)(F)F)cc1 [Compound 2o, N-(3-((4-(3-(3-Hydroxyphenyl)-1-phenyl-1H-pyrazol-4-yl)pyridin-2-yl)amino)propyl)-4-(trifluoromethyl)benzenesulfonamide]
CNS cancer cell lines
  IC50: 1.71 µM
Leukaemia cell lines
  IC50: 1.9 µM
Breast cancer cell lines
  IC50: 1.87 µM
Colon cancer cell lines
  IC50: 1.64 µM
Melanoma cell lines
  IC50: 1.72 µM
[1]
  IC50: 2.12 µM
[2]
  IC50: 2.32 µM
[3]
  IC50: 2.79 µM
Renal cancer cell lines
  IC50: 2.03 µM
[4]
  IC50: 1.09 µM
  LC50 (lethal concentration 50%): 6.3 µM
  IC (TGI): 2.6 µM
[5]
  IC50: 1.41 µM
  IC (TGI): 3.6 µM
  LD50 (lethal dose 50): 9.7 µM
[6]
  CC50: 8.1 µM
  IC50: 0.5 µM
  IC (TGI): 3.1 µM
[7]; Homo sapiens
  CC50: > 100 µM
[7]; Homo sapiens, K562
  IC50: 0.61 µM
  IC (TGI): 5.3 µM
[7]
  IC50: 0.617 µM
[8]
  IC50: 1.85 µM
  CC50: > 100 µM
  IC (TGI): 5.5 µM
[9]
  IC50: 3.06 µM
  LC50 (lethal concentration 50): > 100 µM
  IC (TGI): 5.1 µM
[10]
  LC50 (lethal concentration 50): 18.9 µM
  IC50: 2.87 µM
  IC (TGI): 4.5 µM
[11]
  IC50: 1.57 µM
  LC50 (lethal concentration 50): 5.6 µM
  IC (TGI): 2.9 µM
[12]
  CC50: 8.1 µM
  IC50: 1.78 µM
  IC (TGI): 3.2 µM

## O=S(=O)(NCCCNc1cc(-c2cn(-c3ccccc3)nc2-c2cccc(O)c2)ccn1)c1cccc2ccccc12 [Compound 2q, N-(3-((4-(3-(3-Hydroxyphenyl)-1-phenyl-1H-pyrazol-4-yl)pyridin-2-yl)amino)propyl) naphthalene-1-sulfonamide]
CNS cancer cell lines
  IC50: 2.33 µM
Leukaemia cell lines
  IC50: 1.96 µM
Breast cancer cell lines
  IC50: 1.95 µM
Colon cancer cell lines
  IC50: 2.62 µM
Melanoma cell lines
  IC50: 2.27 µM
[1]
  IC50: 3.05 µM
[2]
  IC50: 5.28 µM
[3]
  IC50: 3.44 µM
Renal cancer cell lines
  IC50: 2.99 µM
[4]
  IC50: 1.1 µM
  LC50 (lethal concentration 50%): > 100 µM
  IC (TGI): 6.6 µM
[5]
  IC50: 1.56 µM
  IC (TGI): 7.2 µM
  LD50 (lethal dose 50): > 100 µM
[6]
  CC50: 4.5 µM
  IC50: 1.23 µM
  IC (TGI): 1.7 µM
[7]; Homo sapiens
  CC50: > 100 µM
[7]; Homo sapiens, K562
  IC50: 0.92 µM
  IC (TGI): 4.4 µM
[8]
  IC50: 1.8 µM
  CC50: > 100 µM
  IC (TGI): 6 µM
[9]
  IC50: 1.92 µM
  LC50 (lethal concentration 50): > 100 µM
  IC (TGI): > 100 µM
[10]
  LC50 (lethal concentration 50): > 100 µM
  IC50: 1.93 µM
  IC (TGI): 44.9 µM
[11]
  IC50: 1.53 µM
  LC50 (lethal concentration 50): 7.4 µM
  IC (TGI): 3.4 µM
[12]
  CC50: 41.3 µM
  IC50: 1.28 µM
  IC (TGI): 13.2 µM
